In ChEMBL document CHEMBL3745645, “Synthesis, in vitro antitumor activity, dihydrofolate reductase inhibition, DNA intercalation and structure-activity relationship studies of 1,3,5-triazine analogues” (Bioorg Med Chem Lett, 2016):

Tests used:
[1] = system: SK-MEL-5; test: Cytotoxicity against human SK-MEL-5 cells at 10 uM after 48 hrs by SRB assay; assay type: functional; conditions: SK-MEL-5, 48 h, read-out: GI
[2] = Cytotoxicity against human SNB19 cells at 10 uM after 48 hrs by SRB assay; assay type: functional; conditions: SNB-19, 48 h, read-out: GI
[3] = Cytotoxicity against human HL-60(TB) cells after 48 hrs by SRB assay; assay type: functional; conditions: HL-60, 48 h, read-out: LC50 (the source's name)
[4] = system: NCI-H522; test: Cytotoxicity against human NCI-H522 cells at 10 uM after 48 hrs by SRB assay; assay type: functional; conditions: NCI-H522, 48 h, read-out: GI
[5] = Cytotoxicity against human IGROV1 cells after 48 hrs by SRB assay; assay type: functional; conditions: IGROV-1, 48 h, pooled result: one value given for 7 cell lines, strains, targets or settings
[6] = Cytotoxicity against human SNB75 cells at 10 uM after 48 hrs by SRB assay; assay type: functional; conditions: SNB-75, 48 h, read-out: GI
[7] = Cytotoxicity against human PC3 cells after 48 hrs by SRB assay; assay type: functional; conditions: PC-3, 48 h
[8] = Cytotoxicity against human MOLT4 cells at 10 uM after 48 hrs by SRB assay; assay type: functional; conditions: MOLT-4, 48 h, read-out: GI
[9] = Cytotoxicity against human COLO205 cells at 10 uM after 48 hrs by SRB assay; assay type: functional; conditions: COLO 205, 48 h, read-out: GI
[10] = system: T47D; test: Cytotoxicity against human T47D cells at 10 uM after 48 hrs by SRB assay; assay type: functional; conditions: read-out: GI
[11] = Cytotoxicity against human SW620 cells at 10 uM after 48 hrs by SRB assay; assay type: functional; conditions: SW-620, 48 h, read-out: GI
[12] = Cytotoxicity against human Caki1 cells at 10 uM after 48 hrs by SRB assay; assay type: functional; conditions: CAKI-1, 48 h, read-out: GI
[13] = system: A549; test: Cytotoxicity against human A549 cells after 48 hrs by SRB assay; assay type: functional; conditions: A549, 48 h, pooled result: one value given for 8 cell lines, strains, targets or settings
[14] = Cytotoxicity against human HOP92 cells at 10 uM after 48 hrs by SRB assay; assay type: functional; conditions: HOP-92, 48 h, read-out: GI
[15] = system: MCF7; test: Cytotoxicity against human MCF7 cells after 48 hrs by SRB assay; assay type: functional; conditions: MCF7, 48 h, pooled result: one value given for 6 cell lines, strains, targets or settings
[16] = Cytotoxicity against human LOXIMVI cells at 10 uM after 48 hrs by SRB assay; assay type: functional; conditions: LOX IMVI, read-out: GI
[17] = system: KM12; test: Cytotoxicity against human KM12 cells at 10 uM after 48 hrs by SRB assay; assay type: functional; conditions: KM12, 48 h, read-out: GI
[18] = Cytotoxicity against human LOXIMVI cells after 48 hrs by SRB assay; assay type: functional; conditions: LOX IMVI, pooled result: one value given for 9 cell lines, strains, targets or settings
[19] = Cytotoxicity against human SF268 cells after 48 hrs by SRB assay; assay type: functional; conditions: SF-268, 48 h, pooled result: one value given for 6 cell lines, strains, targets or settings
[20] = Cytotoxicity against human HOP62 cells at 10 uM after 48 hrs by SRB assay; assay type: functional; conditions: HOP-62, 48 h, read-out: GI
[21] = system: MDA-MB-231; test: Cytotoxicity against human MDA-MB-231 cells at 10 uM after 48 hrs by SRB assay; assay type: functional; conditions: MDA-MB-231, 48 h, read-out: GI
[22] = system: Malme-3M; test: Cytotoxicity against human MALME-3M cells at 10 uM after 48 hrs by SRB assay; assay type: functional; conditions: read-out: GI
[23] = system: Calf thymus DNA; test: Binding affinity to calf thymus DNA by fluorescence spectrophotometric analysis; assay type: nucleic-acid assay; conditions: Bos taurus
[24] = system: ACHN; test: Cytotoxicity against human ACHN cells at 10 uM after 48 hrs by SRB assay; assay type: functional; conditions: read-out: GI
[25] = Cytotoxicity against human UO31 cells at 10 uM after 48 hrs by SRB assay; assay type: functional; conditions: UO-31, 48 h, read-out: GI
[26] = system: U-251; test: Cytotoxicity against human U251 cells at 10 uM after 48 hrs by SRB assay; assay type: functional; conditions: U-251, 48 h, read-out: GI
[27] = Cytotoxicity against human RPMI8226 cells after 48 hrs by SRB assay; assay type: functional; conditions: RPMI-8226, 48 h, read-out: LC50 (the source's name)
[28] = system: A498; test: Cytotoxicity against human A498 cells at 10 uM after 48 hrs by SRB assay; assay type: functional; conditions: A498, 48 h, read-out: GI
[29] = system: SR; test: Cytotoxicity against human SR cells after 48 hrs by SRB assay; assay type: functional
[30] = Cytotoxicity against human IGROV1 cells at 10 uM after 48 hrs by SRB assay; assay type: functional; conditions: IGROV-1, 48 h, read-out: GI
[31] = system: MCF7; test: Cytotoxicity against human MCF7 cells at 10 uM after 48 hrs by SRB assay; assay type: functional; conditions: MCF7, 48 h, read-out: GI
[32] = Cytotoxicity against human SF539 cells at 10 uM after 48 hrs by SRB assay; assay type: functional; conditions: SF-539, 48 h, read-out: GI
[33] = Cytotoxicity against human MOLT4 cells after 48 hrs by SRB assay; assay type: functional; conditions: MOLT-4, 48 h, read-out: LC50 (the source's name)
[34] = Cytotoxicity against human DU145 cells at 10 uM after 48 hrs by SRB assay; assay type: functional; conditions: DU-145, 48 h, read-out: GI
[35] = system: SR; test: Cytotoxicity against human SR cells at 10 uM after 48 hrs by SRB assay; assay type: functional; conditions: read-out: GI
[36] = system: CCRF-CEM; test: Cytotoxicity against human CCRF-CEM cells after 48 hrs by SRB assay; assay type: functional
[37] = system: NCI-H226; test: Cytotoxicity against human NCI-H226 cells at 10 uM after 48 hrs by SRB assay; assay type: functional; conditions: NCI-H226, 48 h, read-out: GI
[38] = system: Calf thymus DNA; test: Binding affinity to calf thymus DNA by UV-vis spectrometric analysis; assay type: nucleic-acid assay; conditions: Bos taurus
[39] = system: SN12C; test: Cytotoxicity against human SN12C cells at 10 uM after 48 hrs by SRB assay; assay type: functional; conditions: read-out: GI
[40] = system: SK-MEL-28; test: Cytotoxicity against human SK-MEL-28 cells at 10 uM after 48 hrs by SRB assay; assay type: functional; conditions: SK-MEL-28, 48 h, read-out: GI
[41] = system: A549; test: Cytotoxicity against human A549 cells at 10 uM after 48 hrs by SRB assay; assay type: functional; conditions: A549, 48 h, read-out: GI
[42] = system: M14; test: Cytotoxicity against human M14 cells at 10 uM after 48 hrs by SRB assay; assay type: functional; conditions: M14, 48 h, read-out: GI
[43] = pooled result: one value given for 2 cell lines, strains, targets or settings
[44] = pooled result: one value given for 6 cell lines, strains, targets or settings

Cc1nc2ccc(Nc3nc(Cl)nc(Nc4ccc(F)cc4)n3)cc2n1Cc1ccccc1
inhibition of growth at 10 µM [1]: 30.8%
inhibition of growth at 10 µM [2]: 12%
CC50 [3]: > 100 µM
inhibition of growth at 10 µM [4]: 77.5%
GI50 [5]: 8.1 µM
LC50 (concentration killing 50% of cells) [5]: 78.8 µM
TGI [5]: 29.8 µM
inhibition of growth at 10 µM [6]: 4.24%
LC50 [7]: 52.5 µM
GI50 [7, 43]: 8.27 µM
TGI [7, 43]: 27.7 µM
inhibition of growth at 10 µM [8]: 41.1%
inhibition of growth at 10 µM [9]: 8.82%
inhibition of growth at 10 µM [10]: 63.2%
inhibition of growth at 10 µM [11]: 17.2%
inhibition of growth at 10 µM [12]: 13.1%
GI50 [13]: 6.23 µM
LC50 [13]: 69.6 µM
TGI [13]: 20.3 µM
inhibition of growth at 10 µM [14]: 21.2%
GI50 [15]: 4.21 µM
LC50 (concentration killing 50% of cells) [15]: 75.8 µM
TGI [15]: 11.9 µM
inhibition of growth at 10 µM [16]: 64.8%
inhibition of growth at 10 µM [17]: 27.2%
GI50 [18]: 5.92 µM
LC50 [18]: 53.9 µM
TGI [18]: 18.4 µM
GI50 [19]: 6.39 µM
LC50 (concentration killing 50% of cells) [19]: 43.5 µM
TGI [19]: 24.3 µM
inhibition of growth at 10 µM [20]: 56.1%
inhibition of growth at 10 µM [21]: 25.9%
inhibition of growth at 10 µM [22]: 11.5%
Ka [23]: 2.97 ×10⁴ /M
inhibition of growth at 10 µM [24]: 28.4%
inhibition of growth at 10 µM [25]: 62.9%
inhibition of growth at 10 µM [26]: 30.9%
CC50 [27]: > 100 µM
inhibition of growth at 10 µM [28]: 22.2%
LC50 (concentration killing 50% of cells) [29]: > 100 µM
inhibition of growth at 10 µM [30]: 33.3%
inhibition of growth at 10 µM [31]: 37.4%
inhibition of growth at 10 µM [32]: 1.83%
CC50 [33]: > 100 µM
inhibition of growth at 10 µM [34]: 5.78%
inhibition of growth at 10 µM [35]: 63.9%
LC50 [36]: > 100 µM
GI50 [36, 44]: 3.34 µM
TGI [36, 44]: 8.68 µM
inhibition of growth at 10 µM [37]: 26.8%
Ka [38]: 6.03 ×10⁴ /M
inhibition of growth at 10 µM [39]: 53.3%
inhibition of growth at 10 µM [40]: 8.45%
inhibition of growth at 10 µM [41]: 23.8%
inhibition of growth at 10 µM [42]: 17.7%
